{"source": "patent US20250255848A1", "about": "“SUBSTITUTED 6,7-DIHYDRO-5H-BENZO[7]ANNULENE DERIVATIVES, PROCESSES FOR THEIR PREPARATION AND THERAPEUTIC USES THEREOF” (SANOFI, priority 2022, published 2025)", "biological_target": "ERα (Homo sapiens (Human), UniProt P03372)", "sequence (P03372 whole entry)": "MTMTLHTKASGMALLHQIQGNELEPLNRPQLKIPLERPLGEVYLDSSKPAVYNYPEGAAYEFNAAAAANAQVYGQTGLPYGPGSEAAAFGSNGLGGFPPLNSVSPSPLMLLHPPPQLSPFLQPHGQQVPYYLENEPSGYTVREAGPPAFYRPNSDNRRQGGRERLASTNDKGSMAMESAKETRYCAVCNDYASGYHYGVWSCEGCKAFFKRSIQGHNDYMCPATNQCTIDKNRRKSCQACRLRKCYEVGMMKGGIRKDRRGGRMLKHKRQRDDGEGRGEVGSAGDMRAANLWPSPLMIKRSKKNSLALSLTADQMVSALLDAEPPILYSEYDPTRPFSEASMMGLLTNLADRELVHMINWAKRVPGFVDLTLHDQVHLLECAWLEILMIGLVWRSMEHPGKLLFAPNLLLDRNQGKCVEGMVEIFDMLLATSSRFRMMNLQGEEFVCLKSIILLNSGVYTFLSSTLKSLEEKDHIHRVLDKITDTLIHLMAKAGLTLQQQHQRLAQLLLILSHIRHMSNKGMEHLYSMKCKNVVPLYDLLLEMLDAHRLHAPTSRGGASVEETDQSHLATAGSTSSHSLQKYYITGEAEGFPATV", "test": "Estrogen receptor degradation activity: breast cancer cell ERα in cell western assay", "format": "cell-based", "details": "MCF7 cells; for % Degradation At 0.3 μM: 4 hours, normalised to fulvestrant 0.1 μM and DMSO; for IC50: 4 hours post compound addition, concentration which degrades 50% of the estrogen receptor", "procedure,_shortened": "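MCF7 cells in phenol-red-free medium with 5% charcoal-stripped FBS, treated 4 h with 9-point 1:5 dilutions (0.3-0.0000018 μM final). ERα measured by in-cell western (anti-ER antibody, Alexa 488), normalized to Syto-64 DNA stain; % decrease scaled DMSO to 0.1 μM fulvestrant, IC50 in nM.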", "data": [{"smiles": "COc1ccc(C2=C(c3ccc(C=C4CN(CCCF)C4)cc3)c3ccc(C(=O)O)cc3CCC2)cc1OC", "note": "[Compound 82, 8-(3,4-dimethoxyphenyl)-9-(4-((1-(3-fluoropropyl)azetidin-3-ylidene)methyl)phenyl)-6,7-dihydro-5H-benzo[7]annulene-3-carboxylic acid]", "values": [{"measurement": "% Degradation At 0.3 μM", "result": 95, "unit": "%"}, {"measurement": "IC50", "result": 1.4, "unit": "nM"}]}, {"smiles": "COc1cc(Cl)cc(C)c1C1=C(c2ccc(C=C3CN(CCCF)C3)cc2)c2ccc(C(=O)O)cc2CCC1", "note": "[Compound 83, 8-(4-chloro-2-methoxy-6-methylphenyl)-9-(4-((1-(3-fluoropropyl)azetidin-3-ylidene)methyl)phenyl)-6,7-dihydro-5H-benzo[7]annulene-3-carboxylic acid]", "values": [{"measurement": "% Degradation At 0.3 μM", "result": 94, "unit": "%"}, {"measurement": "IC50", "result": 0.4, "unit": "nM"}]}, {"smiles": "Cc1ccc(C(F)(F)F)c(C)c1C1=C(c2ccc(C=C3CN(CCCF)C3)cc2)c2ccc(C(=O)O)cc2CCC1", "note": "[Compound 84, 8-(2,6-dimethyl-3-(trifluoromethyl)phenyl)-9-(4-((1-(3-fluoropropyl)azetidin-3-ylidene)methyl)phenyl)-6,7-dihydro-5H-benzo[7]annulene-3-carboxylic acid]", "values": [{"measurement": "% Degradation At 0.3 μM", "result": 91, "unit": "%"}, {"measurement": "IC50", "result": 0.6, "unit": "nM"}]}]}
